Patent US12714725B2, “Stabilization of selenite in a nutritional solution by dissolved oxygen” (BAXTER INTERNATIONAL INC., priority 2019, dated 2026)

Experiments:
[1] = Stability of a mix of the 9 TE at pH 2.2 with 200 mM malic acid in a glass bottle; assay type: physicochemical; conditions: heat sterilized, about 3 ppm dissolved oxygen; for Concentration recovered, T6 M 5° C. / Percentage of the recovered TE, T6 M 5° C.: 6 months at 5° C.; for Concentration recovered, T6 M 5° C. / Concentration recovered, T6 M 40° C.: pH 2.2, 200 mM malic acid; for Percentage of the recovered TE, T6 M 5° C. / Percentage of the recovered TE, T6 M 40° C.: relative to theoretical concentration; for Concentration recovered, T6 M 40° C. / Percentage of the recovered TE, T6 M 40° C.: 6 months at 40° C.
Procedure: The presence of oxygen promotes selenite stability. To ensure that it is not deleterious to another TE the stability of a mix of the 9 TE of interest (i.e. Zn, Cu, Cr, Mo, Mn, Fe, I, F & Se) was evaluated at pH 2.2 with 200 mM of malic acid (to ensure Iodide stability) and stored in a glass bottle (so containing about 3 ppm of dissolved oxygen). The solution was heat sterilized and stored 6 months at 40° C. or 5° C. (T6M 40° C. and T6M 5° C., respectively).

[2] = cited from earlier work
[3] = Full factorial DoE on the stability of Selenite (container material, pH, sterilization, storage temperature, dissolved oxygen); assay type: physicochemical
Procedure: A full factorial DoE was designed to evaluate the impact of five factors on the stability of Selenite:
Container material: an interaction between Selenite and plastic bags material was previously highlighted. To evaluate this factor a neutral material i.e. glass bottles was used as a comparison to plastic bags.
pH of the solution: all previous studies were conducted at pH<3.5 to ensure stability of Fe. A comparison with a native pH>7 obtained by simple dilution of Selenite into MilliQ water allowed to evaluate the impact of this parameter.
Sterilization: the terminal heat sterilization conducted on samples may initiate degradative chemical reactions by heat exposure. Unsterilized VS sterilized samples were compared regarding Selenite stability to assess the impact of this process step.
Storage temperature: accelerated stability studies are classically conducted at 40° C. However, selenite might be sensitive to it and a comparison with samples stored at 5° C. was conducted.
Dissolved oxygen content: oxygen is involved in many redox reactions most of the time deleterious for macro and micronutrients (particularly vitamins). To assess the impact of this parameter on Selenite stability, solutions of Selenite were flushed either with oxygen (up to saturation at about 8 ppm) or with nitrogen (DO<0.5 ppm).
All combinations of factors were produced and stored under appropriate conditions for 6 months. They were then submitted to several tests to evaluate the impact of each factor on several responses.
The following readouts were performed in order to assess the impact of the factors listed above:
Se assay to evaluate the degradation of Selenium.
Visual inspection of the samples to detect any precipitate, particles or discoloration.
pH measurement to evaluate the evolution of sample pH after 6 months storage.
Dissolved oxygen measurement to evaluate the evolution of the dissolved oxygen after 6 months of storage. […]

SMILES | Concentration recovered, T6 M 5° C. [1] | Percentage of the recovered TE, T6 M 5° C. [1] | Concentration recovered, T6 M 40° C. [1] | Percentage of the recovered TE, T6 M 40° C. [1] | Chemical form; Solubility in water [2] | Stability in solution ([3]; absence of stable amount of DO in the said range, storage for more than 1-3 months) | Stability in solution ([3]; products with stable DO concentration of above 0.5 ppm, specifically 0.5 ppm to 8 ppm) | Oxygen amount sufficient to ensure the stability of Selenite in solution ([3]; regression of Se assay against log dissolved oxygen, sterilized samples stored at 40° C. (FIG. 2))
[Cl][Cr]([Cl])[Cl] [Cr, chromium chloride] | 306 ng/mL | 77.3% | 329 ng/mL | 83.1% | 585 mg/mL |  |  | 
[Cl][Cu][Cl] [Cu, copper chloride] | 9784 ng/mL | 81.1% | 10504 ng/mL | 87.1% | 706 mg/mL |  |  | 
[F-].[Na+] [F, sodium fluoride] |  | 94% |  | 88% |  |  |  | 
[I-].[K+] [I, potassium iodide] | 3167 ng/mL | 78.6% | 3401 ng/mL | 84.4% |  |  |  | 
[Na+].[Na+].[O]=[Mo](=[O])([O-])[O-] [Mo, sodium molybdate] | 653 ng/mL | 79.9% | 707 ng/mL | 86.6% |  |  |  | 
O=[Se](O)O [Selenite, sodium selenite] |  |  |  |  |  | instable | stable | around 0.5 ppm
[Cl-].[Cl-].[Zn+2] [Zn, zinc chloride] | 158347 ng/mL | 77.8% | 171822 ng/mL | 84.4% | 4.32 kg/L |  |  | 
